Test results reported in patent publication US20250163104A1, “MACROCYCLIC IMMUNOMODULATORS” (priority 2021, published 2025).
Where a SMILES comes first, the peptide text is derived from it. Bridges are numbered along the chain shown (N, C = ends). [ ]: non-standard residue; d: D form. The star is where a group is joined. Bip = N[C@@H](Cc1ccc(-c2ccccc2)cc1)C(=O)O; Phe(3-Cl) = N[C@@H](Cc1cccc(Cl)c1)C(=O)O; Phe(3-Me) = Cc1cccc(C[C@H](N)C(=O)O)c1; 3Pal = N[C@@H](Cc1cccnc1)C(=O)O; 4Pal = N[C@@H](Cc1ccncc1)C(=O)O; Cha = N[C@@H](CC1CCCCC1)C(=O)O; Carboxymethyl = O=C(O)C*; Orn = NCCC[C@H](N)C(=O)O; Dab = NCC[C@H](N)C(=O)O; Dap = NC[C@H](N)C(=O)O

target: T1, human PD-1 / PD-L1-Ig binding on Jurkat cell line over-expressing human PD-1 (Jurkat-PD-1) (Homo sapiens, UniProt Q15116); experiment: Jurkat-PD-1 Cell Binding High-Content Screening Assay (CBA); type: cell-based; conditions: Jurkat HPD1_PDL1 IC50, Jurkat-PD-1 cells, PE-labeled PD-L1-Ig 20 nM final
T1 construct: expressed in transfected cells; host or cells: Jurkat
Summary of the method: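 Jurkat cells over-expressing human PD-1, in DMEM/10% FCS, pre-incubated with compound 2 h at 37° C. PE-labeled human PD-L1-Ig (20 nM final) added for 1 h; cells fixed in paraformaldehyde with Hoechst 33342 nuclear stain, washed, and bound fluorescence quantified by high-content imaging.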

T1 sequence (Q15116 25-288): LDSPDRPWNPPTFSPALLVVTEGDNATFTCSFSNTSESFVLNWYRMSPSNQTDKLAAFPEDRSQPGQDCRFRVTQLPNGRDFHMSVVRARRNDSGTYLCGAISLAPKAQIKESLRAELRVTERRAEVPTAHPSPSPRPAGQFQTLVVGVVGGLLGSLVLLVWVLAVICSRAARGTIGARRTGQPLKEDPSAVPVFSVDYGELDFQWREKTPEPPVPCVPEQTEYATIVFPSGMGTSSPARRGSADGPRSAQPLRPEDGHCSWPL

Structure (SMILES) | IC50 [nM]
Cc1cccc(C[C@@H]2NC(=O)[C@H](CC(=O)O)NC(=O)[C@H](Cc3ccc(C(=O)O)cc3)NC(=O)[C@H](Cc3ccncc3)NC(=O)CSC[C@@H](C(=O)N[C@@H](C)C(N)=O)NC(=O)[C@H]([C@@H](C)O)NC(=O)[C@H](C(C)C)NC(=O)[C@H](CC3CCCCC3)NC(=O)[C@H](Cc3c[nH]cn3)NC(=O)[C@@H](CC(C)C)NC(=O)[C@H](CCCN)NC(=O)[C@H](C(C)C)NC(=O)[C@H](Cc3ccc(-c4ccccc4)cc3)NC(=O)[C@H](C(C)C)NC2=O)c1 [Compound 1581] | 22.4

same assay, conditions: Jurkat-PD-1 cells, PE-labeled PD-L1-Ig 20 nM final; read-out: Jurkat HPD1_PDL1 IC50

Structure (SMILES) | IC50 [nM]
CC(C)C[C@H]1NC(=O)[C@H](CCCN)NC(=O)[C@H](C(C)C)NC(=O)[C@H](Cc2ccc(-c3ccccc3)cc2)NC(=O)[C@H](C(C)C)NC(=O)[C@H](Cc2cccc(Cl)c2)NC(=O)[C@H](CC(=O)O)NC(=O)[C@H](Cc2ccc(OCC(=O)O)cc2)NC(=O)[C@H](Cc2ccncc2)NC(=O)CSC[C@@H](C(=O)N[C@@H](C)C(N)=O)NC(=O)[C@H]([C@@H](C)O)NC(=O)[C@H](C(C)C)NC(=O)[C@H](CC2CCCCC2)NC(=O)[C@H](CCN)NC1=O [Compound 1575] | 16.6
CC(C)C[C@H]1NC(=O)[C@H](CCCN)NC(=O)[C@H](C(C)C)NC(=O)[C@H](Cc2ccc(-c3ccccc3)cc2)NC(=O)[C@H](C(C)C)NC(=O)[C@H](Cc2cccc(C(F)(F)F)c2)NC(=O)[C@H](CC(=O)O)NC(=O)[C@H](Cc2ccc(OCC(=O)O)cc2)NC(=O)[C@H](CN)NC(=O)CSC[C@@H](C(=O)N[C@@H](C)C(N)=O)NC(=O)[C@H]([C@@H](C)O)NC(=O)[C@H](C(C)C)NC(=O)[C@H](CC2CCCCC2)NC(=O)[C@H](CCN)NC1=O [Compound 1576] | 30.3
CC(C)C[C@H]1NC(=O)[C@H](CCCN)NC(=O)[C@H](C(C)C)NC(=O)[C@H](Cc2ccc(-c3ccccc3)cc2)NC(=O)[C@H](C(C)C)NC(=O)[C@H](Cc2cccc(C(F)(F)F)c2)NC(=O)[C@H](CC(=O)O)NC(=O)[C@H](Cc2ccc(OCC(=O)O)cc2)NC(=O)[C@H](Cc2ccncc2)NC(=O)CSC[C@@H](C(=O)N[C@@H](C)C(N)=O)NC(=O)[C@H]([C@@H](C)O)NC(=O)[C@H](C(C)C)NC(=O)[C@H](CC2CCCCC2)NC(=O)[C@H](CCN)NC1=O [Compound 1577] | 12.1
CC(C)C[C@H]1NC(=O)[C@H](CCCN)NC(=O)[C@H](C(C)C)NC(=O)[C@H](Cc2ccc(-c3ccccc3)cc2)NC(=O)[C@H](C(C)C)NC(=O)[C@H](Cc2cccc(Cl)c2)NC(=O)[C@H](CC(=O)O)NC(=O)[C@H](Cc2ccncc2)NC(=O)[C@H](CN)NC(=O)CSC[C@@H](C(=O)N[C@@H](C)C(N)=O)NC(=O)[C@H]([C@@H](C)O)NC(=O)[C@H](C(C)C)NC(=O)[C@H](CC2CCCCC2)NC(=O)[C@H](CCN)NC1=O [Compound 1578] ({CH2CO}-[Dap][4Pal]D[Phe(3-Cl)]V[Bip]V[Orn][dL][Dab][Cha]VTCA-NH2; thioether N-14) | 35
Cc1cccc(C[C@@H]2NC(=O)[C@H](CC(=O)O)NC(=O)[C@H](Cc3ccc(OCC(=O)O)cc3)NC(=O)[C@H](CN)NC(=O)CSC[C@@H](C(=O)N[C@@H](C)C(N)=O)NC(=O)[C@H]([C@@H](C)O)NC(=O)[C@H](C(C)C)NC(=O)[C@H](CC3CCCCC3)NC(=O)[C@H](Cc3cnc[nH]3)NC(=O)[C@@H](CC(C)C)NC(=O)[C@H](CCCN)NC(=O)[C@H](C(C)C)NC(=O)[C@H](Cc3ccc(-c4ccccc4)cc3)NC(=O)[C@H](C(C)C)NC2=O)c1 [Compound 1579] | 17.8
Cc1cccc(C[C@@H]2NC(=O)[C@H](CC(=O)O)NC(=O)[C@H](Cc3ccc(OCC(=O)O)cc3)NC(=O)[C@H](Cc3cccnc3)NC(=O)CSC[C@@H](C(=O)NCC(N)=O)NC(=O)[C@H](CO)NC(=O)[C@H](C(C)C)NC(=O)[C@H](CC3CCCCC3)NC(=O)[C@H](Cc3cnc[nH]3)NC(=O)[C@@H](CC(C)C)NC(=O)[C@H](CCCN)NC(=O)[C@H](C(C)C)NC(=O)[C@H](Cc3ccc(-c4ccccc4)cc3)NC(=O)[C@H](CC(C)C)NC2=O)c1 [Compound 1582] ({CH2CO}-[3Pal]Y(Carboxymethyl)D[Phe(3-Me)]L[Bip]V[Orn][dL]H[Cha]VSCG-NH2; thioether N-14) | 36.2
